According to PMC11642016 (International Journal of Molecular Sciences, 2024):
Values joined by “and” are separate entries in the source; they are usually repeats but may differ in a detail not shown here. Equal entries are not always repeated. Where two headings read alike, the source gives them in different places.

Experiments:
Fadu cells = assay: CellTiter-Glo luminescent cell viability assay, Fadu; conditions: for Fadu Cell viability (% of controll) / Cell Viability (% of Control) 2.8 µM / Cell Viability (% of Control) 8.3 µM / Cell Viability (% of Control) 25 µM: 72 h; for Fadu Cell viability (% of controll): dose–response, individual replicates; for Cell Viability (% of Control) 2.8 µM / Cell Viability (% of Control) 8.3 µM / Cell Viability (% of Control) 25 µM: Fadu, mean ± SD, n = 2
PANC-1 cells = assay: CellTiter-Glo luminescent cell viability assay, PANC-1; conditions: for PANC-1 Cell viability (% of controll) / Cell Viability (% of Control) 2.8 µM / Cell Viability (% of Control) 8.3 µM / Cell Viability (% of Control) 25 µM: 72 h; for PANC-1 Cell viability (% of controll): dose–response, individual replicates; for Cell Viability (% of Control) 2.8 µM / Cell Viability (% of Control) 8.3 µM / Cell Viability (% of Control) 25 µM: PANC-1, mean ± SD, n = 2
[1] = test system: non-tumorous primary fibroblast cells; assay: CellTiter-Glo luminescent cell viability assay, primary fibroblasts; conditions: for Primer fibroblast Cell viability (% of controll): 72 h, dose–response, individual replicates
Method: Primary fibroblast cultures were prepared from human skin biopsies and maintained in DMEM supplemented with 10% FBS, 1% penicillin-streptomycin, and 1% MEM Non-Essential Amino Acids Solution (Thermo Fisher Scientific). […] All cell lines were cultured in a humidified atmosphere at 37 °C and 5% CO2, passaged twice a week, and the experiments were performed on cells between passage 5 and 15. The cell lines were routinely screened for the absence of mycoplasma infection (DAPI staining).
The effects of the synthesized compounds on cell viability were measured using the CellTiter-Glo® luminescent cell viability assay (Promega, Madison, WI, USA), according to the manufacturer’s instructions. Briefly, cells were seeded onto a flat-bottomed, white 96-well plate (BRANDplates, cat. no.: 781965)), with the following densities: PANC-1: 750 cells/well, Fadu: 2000 cells/well, primary fibroblasts: 2000 cells/well, HEK293T WT: 1000 cells/well, HEK293T CLPP^−/−: 2500 cells/well. After seeding, cells were incubated for a further 48 h before treatment. Cells were treated with the compounds for 72 h. Three concentrations (25.0 µM; 8.3 µM; 2.8 µM) were applied during the initial cell viability screening, while for the determination of dose–response curves, 1.5-fold serially diluted compound concentrations were applied (range: 26 µM–0.7 µM). After treatment, the luminescence signal was recorded using a microplate reader (BioTek Synergy 2 Multi-Mode Reader, BioTek, Winooski, VT, USA).
Data analysis was performed using GraphPad Prism 9.5.0 software (GraphPad Software, San Diego, CA, USA). […] The dose–response curves were generated by four-parameter nonlinear regression, and the IC50 values were determined as the means ± SEM of the best-fit values of 3 independent measurements. The R^2 values were consistently above 0.93, indicating a strong fit of the model to the experimental data (Supplementary S.89). […] Dunnett’s post hoc test was applied to adjust for multiple comparisons, minimizing the likelihood of false positive results. Assumptions for ANOVA, including normality (assessed via QQ plots) and homogeneity of variance (tested using the Brown–Forsythe test), were verified. The following significance levels were applied: * p < 0.05, ** p < 0.01, *** p < 0.001, **** p < 0.0001. […] The tumor selectivity of the compounds was quantitatively characterized by the selectivity index (SI). This parameter was calculated as the ratio of the average best-fit IC50 value for primary fibroblasts and the best-fit IC50 value for the corresponding tumor cells (PANC-1 or Fadu).

PANC-1 and A2058 cells = test system: PANC-1 and A2058 cells; set-up: method as in PMID 35455465; conditions: 24 h exposure time; cited from earlier work
[2] = test system: PANC-1, Fadu, A2058 and EBC-1 cell lines; set-up: method as in PMID 35455465; conditions: 10 µM; cited from earlier work

NCC#Cc1ccc(CN2C(=O)C3=C(CCN(Cc4ccc(-n5cc(-[c-]6cccc6)nn5)cc4)C3)N3CCN=C23)cc1.[Fe+2].c1cc[cH-]c1 [I/A, reference compound]
Fadu Cell viability (% of controll) (Fadu cells; 0.7 μM): 111 % of controll and 115 % of controll and 108 % of controll | Fadu Cell viability (% of controll) (Fadu cells; 1 μM): 110 % of controll and 112 % of controll and 109 % of controll | Fadu Cell viability (% of controll) (Fadu cells; 1.5 μM): 107 % of controll and 108 % of controll and 109 % of controll | Fadu Cell viability (% of controll) (Fadu cells; 2.3 μM): 109 % of controll (2×) and 104 % of controll | Fadu Cell viability (% of controll) (Fadu cells; 3.4 μM): 104 % of controll and 109 % of controll and 110 % of controll | Fadu Cell viability (% of controll) (Fadu cells; 5.1 μM): 105 % of controll and 106 % of controll and 102 % of controll | Fadu Cell viability (% of controll) (Fadu cells; 7.7 μM): 99 % of controll and 86 % of controll and 82 % of controll | Fadu Cell viability (% of controll) (Fadu cells; 17.3 μM): 5 % of controll and 0 % of controll and 1 % of controll | Fadu Cell viability (% of controll) (Fadu cells; 26 μM): 0 % of controll | Cell Viability (% of Control) 2.8 µM (Fadu cells; first-set screening): 105 ± 9 % of Control | Cell Viability (% of Control) 2.8 µM (Fadu cells; second-set screening): 105 ± 9 % of Control | Cell Viability (% of Control) 8.3 µM (Fadu cells; first-set screening): 66 ± 24 % of Control | Cell Viability (% of Control) 8.3 µM (Fadu cells; second-set screening): 66 ± 24 % of Control | Cell Viability (% of Control) 25 µM (Fadu cells; first-set screening): 0 ± 0 % of Control | Cell Viability (% of Control) 25 µM (Fadu cells; second-set screening): 0 ± 0 % of Control | Selectivity Index (SI) Fibroblast/Fadu (Fadu cells; ratio of mean best-fit IC50 for primary fibroblasts and best-fit IC50 for Fadu): 1.5 | IC50 (Fadu cells; read-out: Fadu IC50 values, Mean, mean of independently fitted replicate IC50 values (Supplement S.6)): 10 µM | IC50 (Fadu cells; read-out: Fadu IC50 values, individual replicates n1-n3, IC50 independently determined for each replicate measurement (Supplement S.6)): 11.2 µM and 9.27 µM and 9.61 µM | IC50 (Fadu cells; read-out: IC50 Value ± SEM Fadu, 72 h treatment, best-fit values, n = 3): 10 ± 0.23 µM | PANC-1 Cell viability (% of controll) (PANC-1 cells; 0.7 μM): 106 % of controll and 102 % of controll and 107 % of controll | PANC-1 Cell viability (% of controll) (PANC-1 cells; 1 μM): 109 % of controll and 116 % of controll and 115 % of controll | PANC-1 Cell viability (% of controll) (PANC-1 cells; 1.5 μM): 110 % of controll and 105 % of controll and 115 % of controll | PANC-1 Cell viability (% of controll) (PANC-1 cells; 2.3 μM): 109 % of controll and 107 % of controll and 111 % of controll | PANC-1 Cell viability (% of controll) (PANC-1 cells; 3.4 μM): 108 % of controll and 109 % of controll and 112 % of controll | PANC-1 Cell viability (% of controll) (PANC-1 cells; 5.1 μM): 99 % of controll and 97 % of controll and 119 % of controll | PANC-1 Cell viability (% of controll) (PANC-1 cells; 7.7 μM): 93 % of controll and 79 % of controll and 109 % of controll | PANC-1 Cell viability (% of controll) (PANC-1 cells; 17.3 μM): 0 % of controll and 2 % of controll and 1 % of controll | PANC-1 Cell viability (% of controll) (PANC-1 cells; 26 μM): 0 % of controll | Cell Viability (% of Control) 2.8 µM (PANC-1 cells; first-set screening): 108 ± 4 % of Control | Cell Viability (% of Control) 2.8 µM (PANC-1 cells; second-set screening): 108 ± 4 % of Control | Cell Viability (% of Control) 8.3 µM (PANC-1 cells; first-set screening): 39 ± 7 % of Control | Cell Viability (% of Control) 8.3 µM (PANC-1 cells; second-set screening): 39 ± 7 % of Control | Cell Viability (% of Control) 25 µM (PANC-1 cells; first-set screening): 0 ± 0 % of Control | Cell Viability (% of Control) 25 µM (PANC-1 cells; second-set screening): 0 ± 0 % of Control | Selectivity Index (SI) Fibroblast/PANC-1 (PANC-1 cells; ratio of mean best-fit IC50 for primary fibroblasts and best-fit IC50 for PANC-1): 1.4 | IC50 (PANC-1 cells; read-out: IC50 Value ± SEM PANC-1, 72 h treatment, best-fit values, n = 3): 10.7 ± 0.31 µM | IC50 (PANC-1 cells; read-out: PANC-1 IC50 values, Mean, mean of independently fitted replicate IC50 values (Supplement S.6)): 10.6 µM | IC50 (PANC-1 cells; read-out: PANC-1 IC50 values, individual replicates n1-n3, IC50 independently determined for each replicate measurement (Supplement S.6)): 11.5 µM and 10.3 µM and 10.1 µM | Primer fibroblast Cell viability (% of controll) ([1]; 0.7 μM): 96 % of controll and 98 % of controll and 99 % of controll | Primer fibroblast Cell viability (% of controll) ([1]; 1 μM): 100 % of controll and 103 % of controll and 99 % of controll | Primer fibroblast Cell viability (% of controll) ([1]; 1.5 μM): 102 % of controll and 105 % of controll and 104 % of controll | Primer fibroblast Cell viability (% of controll) ([1]; 2.3 μM): 102 % of controll (2×) and 104 % of controll | Primer fibroblast Cell viability (% of controll) ([1]; 3.4 μM): 104 % of controll (2×) and 107 % of controll | Primer fibroblast Cell viability (% of controll) ([1]; 5.1 μM): 107 % of controll and 109 % of controll and 98 % of controll | Primer fibroblast Cell viability (% of controll) ([1]; 7.7 μM): 115 % of controll and 118 % of controll and 109 % of controll | Primer fibroblast Cell viability (% of controll) ([1]; 17.3 μM): 8 % of controll and 42 % of controll and 24 % of controll | Primer fibroblast Cell viability (% of controll) ([1]; 26 μM): 0 % of controll | IC50 ([1]; read-out: IC50 Value ± SEM Primary Fibroblast, 72 h treatment, best-fit values, n = 3): 14.9 ± 0.46 µM | IC50 ([1]; read-out: Primary fibroblast IC50 values, Mean, mean of independently fitted replicate IC50 values (Supplement S.6), ONC201 value mathematically estimated from inflection point): 15.2 µM | IC50 ([1]; read-out: Primary fibroblast IC50 values, individual replicates n1-n3, IC50 independently determined for each replicate (Supplement S.6), ONC201 value mathematically estimated from inflection point, viability stayed above 50%): 13.9 µM and 14.9 µM and 16.8 µM | apoptosis induction (PANC-1 and A2058 cells): far more efficient in apoptosis induction than ONC201 | viable cells after treatment in colony formation assays [2]: no viable cells could be observed
